Test results reported in patent publication US5153353A, “p-Oxybenzoic acid derivatives, process for the preparation thereof and use thereof as drug” (Klinge Pharma GmbH, priority 1990, dated 1992).

What was measured:
[1] = tested on: cholesterol biosynthesis in rat liver homogenate; assay: Determination of the inhibition of cholesterol biosynthesis in rat liver homogenate (14C-acetate incorporation); assay type: biochemical; conditions: compared with the blank value
Description: 2) Determination of the inhibition of cholesterol biosynthesis
3 g freshly prepared rat liver was homogenized in 6 ml ice-cooled puffer and centrifuged for 20 minutes at 20000×g. The supernatant was separated off and employed for the following determinations.
To a mixture of 110 μl supernatant and 300 μl incubation solution 10 μl of the methanolic test substance solution were pipetted and incubated at 37° C. for 20 minutes. Thereafter 10 μl of an ^14 C-acetate solution were added by pipette and incubated for a further 30 minutes. Thereafter, to the mixture 500 μl ethanolic KOH solution were added, further incubation carried out for 60 minutes at 75° C. and thereafter the reaction stopped in an ice bath. To enable a yield correction to be made for the subsequent extraction of the ^14 C-cholesterol formed ^3 H-cholesterol (about 10^-3 μCi) was added thereto by pipetting. In addition, 500 μl of an ethanolic solution of unmarked cholesterol was added. The cholesterol of the mixture was extracted twice with 1 ml petroleum ether in each case, the extract dried and taken up with 0.6 ml of an ethanol/acetone mixture (1/1). The dissolved cholesterol was then precipitated by means of 1.4 ml of a digitonin solution (=7 mg). After 15 h at 0° C. the precipitate was centrifuged off, dissolved with 0.5 ml methanol/glacial acetic acid (33/5) and diluted with 2 ml methanol. The radioactivity of the biosynthetically formed cholesterol was determined in 12 ml scintillation liquid (DIMILUME) by means of a scintillation counter.
Buffer: 6.8 g KH2 PO4, 0.6 g MgCl2, 0.37 g EDTA, 1.83 g nicotine amide, 51.35 g saccharose and 0.4 g mercaptoethanol were dissolved in distilled water and diluted to 500 ml (PH =7.2).
Incubation solution: The following were each individually dissolved:
8.6 mg NAD with 1.3 ml buffer
10.2 mg NADP with 1.3 ml buffer
39.6 mg glucose-6-phosphate with 0.65 ml buffer
31.6 mg glucose-6-phosphate-dehydrogenase (1000 U/0.91 ml) with 0.285 ml buffer
These solutions were not mixed until immediately prior to use.
Solution 1: 250 μCi ^14 C-sodium acetate in 1 ml aqua dest.
Solution 2: 512.5 mg sodium acetate in 10 ml aqua dest.
Prior to the test 0.1 ml of the solution 1 and 0.4 ml of the solution 2 were mixed and added to 2 ml aqua dest.
Ethanolic KOH: 10 g KOH were dissolved in 100 ml. ethanol
Method: R. E. Dugan et al. (Archives Biochem. Biophys. 152,21 (1972))

[2] = tested on: normolipemic, male Wister rats; assay: Determination of the hypolipemic effect in rats (serum total cholesterol and triglycerides after oral administration); assay type: in vivo, rat; conditions: three administrations over three days
Description: 1) Determination of the hypolipemic effect in rats
The lipid-lowering effect of the test substances was examined in groups each of 10 normolipemic, male Wister rats of 200 to 220 g in weight.
The investigations were performed after a 3-week adaption training of the eating habits of the animals. The controlled feeding was carried out daily from 8 a.m. to 10 a.m. The test substances were administered at 11 a.m.
The test compounds were absorbed in an aqueous solution of 0.25% agar and 0.84% NaCl and administered orally. After three administrations over a period of three days blood was extracted from the animals.
The determination of cholesterol and triglycerides in the serum was made with the aid of the "Cobas-Bio" centrifugal analyzer of Hoffmann-La Roche.
a) Cholesterol determination CHOS-PAP method, enzymatic colour test according to J. Siedel et al. (J. Clin. Chem. Clin. Biochem. 19, 838 (1981))
b) Triglyceride determination Enzymatic cleavage of the triglycerides with the aid of specific lipases with subsequent determination of the liberated glycerol according to T. O. Tiffany et al. (Clin. Chem. 20, 476 (1974))

## CC(C)(C(=O)O)c1ccc(CCC(O)COc2ccc(C(=O)O)cc2)cc1 (stereo not drawn) [Compound 3, 4-{4-[4'-(1-carboxy-1-methylethyl)phenyl]-2-hydroxybutoxy}benzoic acid]
[1]; concentration 1 × 10^-4 Mol/l
  Percentage inhibition of cholesterol biosynthesis in rat liver homogenate: 70%
[1]; concentration 1 × 10^-5 Mol/l
  Percentage inhibition of cholesterol biosynthesis in rat liver homogenate: 29%
[1]; concentration 3 × 10^-5 Mol/l
  Percentage inhibition of cholesterol biosynthesis in rat liver homogenate: 56%
[1]; concentration 3 × 10^-6 Mol/l
  Percentage inhibition of cholesterol biosynthesis in rat liver homogenate: 14%
[2]; 100 mg/kg
  Percentage change of the total cholesterol (TC) level in the rat serum, X ± SD: -17.5 ± 6.2%
  Percentage change of the triglyceride (TG) level in the rat serum, X ± SD: -19.4 ± 9.7%

## CC(C)(C)c1ccc(CCC(O)COc2ccc(C(=O)OCC(O)CO)cc2)cc1 (stereo not drawn) [Compound 1, 4-[4-(4'-tert. butylphenyl)-2-hydoxybutoxy]benzoic acid-2,3-dihydroxypropylester]
[1]; concentration 1 × 10^-4 Mol/l
  Percentage inhibition of cholesterol biosynthesis in rat liver homogenate: 68%
[1]; concentration 1 × 10^-5 Mol/l
  Percentage inhibition of cholesterol biosynthesis in rat liver homogenate: 34%
[1]; concentration 3 × 10^-5 Mol/l
  Percentage inhibition of cholesterol biosynthesis in rat liver homogenate: 57%
[1]; concentration 3 × 10^-6 Mol/l
  Percentage inhibition of cholesterol biosynthesis in rat liver homogenate: 0%
[2]; 10 mg/kg
  Percentage change of the total cholesterol (TC) level in the rat serum, X ± SD: +3.8 ± 16.4%
  Percentage change of the triglyceride (TG) level in the rat serum, X ± SD: -26.2 ± 51.1%
[2]; 30 mg/kg
  Percentage change of the total cholesterol (TC) level in the rat serum, X ± SD: -17.1 ± 13.9%
  Percentage change of the triglyceride (TG) level in the rat serum, X ± SD: -28.5 ± 9.0%
[2]; 100 mg/kg
  Percentage change of the total cholesterol (TC) level in the rat serum, X ± SD: -44.1 ± 10.8%
  Percentage change of the triglyceride (TG) level in the rat serum, X ± SD: -34.7 ± 8.6%

## CCOC(=O)C(C)(C)Oc1ccc(Cl)cc1 [CLOFIBRAT, reference compound]
[2]; 100 mg/kg
  Percentage change of the total cholesterol (TC) level in the rat serum, X ± SD: -14.5 ± 12.0%
  Percentage change of the triglyceride (TG) level in the rat serum, X ± SD: -29.2 ± 19.4%

## CC(C)(CO)c1ccc(CCC(O)COc2ccc(C(=O)O)cc2)cc1 (stereo not drawn) [Compound 2]
[1]; concentration 1 × 10^-4 Mol/l
  Percentage inhibition of cholesterol biosynthesis in rat liver homogenate: 75%
[1]; concentration 1 × 10^-5 Mol/l
  Percentage inhibition of cholesterol biosynthesis in rat liver homogenate: 41%
[1]; concentration 3 × 10^-5 Mol/l
  Percentage inhibition of cholesterol biosynthesis in rat liver homogenate: 65%
[1]; concentration 3 × 10^-6 Mol/l
  Percentage inhibition of cholesterol biosynthesis in rat liver homogenate: 16%
[2]; 100 mg/kg
  Percentage change of the total cholesterol (TC) level in the rat serum, X ± SD: -39.7 ± 12.4%
  Percentage change of the triglyceride (TG) level in the rat serum, X ± SD: -1.6 ± 21.4%
